Measurements taken from patent US20240262842A1, “SMALL MOLECULE INHIBITORS OF KRAS G12C MUTANT” (Merck Sharp & Dohme LLC, priority 2021, published 2024).
Where two headings read alike, the source gives them in different places.

Legend:
[1] = biological target: T1, interaction between GMPPNP-bound recombinant K-Ras4B G12C mutant protein and cRAF RAS-binding domain (cRAF-RBD) (Homo sapiens, UniProt P01116, G12C); experiment: Inhibitory activity on interaction between KRAS G12C and cRAF (Alpha technology); conditions: Table 2-1
T1 construct: His-tag (N)
T1 sequence (P01116 with tags, fused parts or gaps isoform P01116-2 G12C): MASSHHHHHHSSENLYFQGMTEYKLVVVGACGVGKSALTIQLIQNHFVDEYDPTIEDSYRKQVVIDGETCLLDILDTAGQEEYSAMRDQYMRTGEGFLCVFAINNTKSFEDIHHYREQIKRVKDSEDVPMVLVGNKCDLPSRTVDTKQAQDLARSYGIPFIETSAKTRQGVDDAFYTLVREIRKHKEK
In short: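 His-tagged K-Ras4B G12C (aa 1-169), GMPPNP-loaded, preincubated with compound 1 h at 25° C in pH 7.5 Tris buffer with MgCl2, TCEP, Tween 20. cRAF-RBD (aa 50-132) and Alpha reagents then added for 1.5 h; Alpha signal normalised to DMSO (0%) and GDP-bound KRAS (100%); IC50 from dose titration.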

MIA PaCa-2 cells = experiment: Growth inhibition activity on KRAS-G12C mutant cell line (CellTiter-Glo 3D); format: cell-based, human; conditions: Homo sapiens, MIA PaCa-2, 72 h, MIA PaCa-2, 3-day culture with compound; Table 3-1
In short: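 MIA PaCa-2 cells in RPMI1640 with 10% FBS, U-bottom wells, cultured 1 day before compound (0.2% DMSO final), then 3 days at 37 °C, 5% CO2. Viability by CellTiter-Glo 3D luminescence; growth inhibition versus untreated wells gives IC50 (nM).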

[2] = IC50, GMPPNP-bound KRAS G12C incubated with compound 25° C. 1 hour
[3] = GMPPNP-bound KRAS G12C incubated with compound 25° C. 1 hour, read-out: IC50

`Cc1cc2c(nc(C)n2C)c2c1-c1cccc3c(C(=O)c4cc(F)c(NC(=O)/C=C/CNC5COC(C)(C)C5)c(F)c4)cn(c13)CCN2C` (centres unmarked) [Example 124, (E)-N-(2,6-difluoro-4-(6,8,9,11-tetramethyl-8,11,12,13-tetrahydro-imidazo[4″,5″:5′,6′]benzo-[1′,2′:5,6][1,4]diazocino-[7,8,1-hi]indole-2-carbon-yl)phenyl)-4-((5,5-dimeth-yltetrabydrofuran-3-yl)-amino)but-2-enamide] gave an IC50 [1, 2] of 13 nM and an IC50 (MIA PaCa-2 cells) of 13.7 nM.

`Cn1cnc2c3c(c(C(F)(F)F)cc21)-c1cccn2c(C(=O)c4cc(F)c(NC(=O)/C=C/CNC56CCC(CC5)OC6)c(F)c4)cc(c12)CCO3` [Example 125] was tested, and the IC50 [1, 3] was 3.75 nM and the IC50 (MIA PaCa-2 cells) was 9.06 nM.

For `COCCNC/C=C/C(=O)Nc1c(F)cc(C(=O)c2cc3c4c(cccn24)-c2c(C(F)(F)F)cc4c(ncn4C)c2N(C)CC3)cc1F` [Example 126, (E)-N-(4-(9,12-dimethyl-7-(trifluoromethyl)-9,12,13,14-tetrahydro-imidazo[4″,5″:5′,6′]benzo-[1′,2′:2,3]azocino[4,5,6-hi]indolizine-2-carbonyl)-2,6-difluorophenyl)-4-((2-methoxyethyl)amino)but-2-enamide], the IC50 [1, 3] was 18 nM and the IC50 (MIA PaCa-2 cells) was 14.3 nM.

`COCC1(NC/C=C/C(=O)Nc2c(F)cc(C(=O)c3cc4c5c(cccn35)-c3c(C(F)(F)F)cc5c(ncn5C)c3N(C)CC4)cc2F)CCCC1` [Example 127, (E)-N-(4-(9,12-dimethyl-7-(trifluoromethyl)-9,12,13,14-tetrahydro-imidazo[4″,5″:5′,6′]benzo-[1′,2′:2,3]azocino[4,5,6-hi]indolizine-2-carbonyl)-2,6-difluorophenyl)-4-((1-(methoxymethyl)cyclo-pentyl)amino)but-2-en-amide] was tested, and the IC50 [1, 3] was 16.8 nM and the IC50 (MIA PaCa-2 cells) was 22.5 nM.

Compound `COC[C@H](CO)NC/C=C/C(=O)Nc1c(F)cc(C(=O)c2cc3c4c(cccn24)-c2c(C(F)(F)F)cc4c(ncn4C)c2N(C)CC3)cc1F` [Example 128, (S,E)-N-(4-(9,12-dimeth-yl-7-(trifluoromethyl)-9,12,13,14-tetrahydro-imidazo[4″,5″:5′,6′]benzo-[1′,2′:2,3]azocino[4,5,6-hi]indolizine-2-carbonyl)-2,6-difluorophenyl)-4-((1-hydroxy-3-methoxy-propan-2-yl)amino)but-2-enamide] has an IC50 [1, 3] of 18.8 nM and an IC50 (MIA PaCa-2 cells) of 11.8 nM.

`CC1Cc2cc(C(=O)c3cc(F)c(NC(=O)/C=C/CNC4(C)COC4)c(F)c3)n3cccc(c23)-c2c(C(F)(F)F)cc3c(ncn3C)c2O1` (centres unmarked) [Example 130, (E)-N-(4-(9,13-dimethyl-7-(trifluoromethyl)-13,14-dihydro-9H-imidazo[4″,5″:5′,6′]benzo[1′,2′:2,3]oxocino[4,5,6-hi]indolizine-2-carbonyl)-2,6-difluorophenyl)-4-((3-methyloxetan-3-yl)amino)but-2-enamide] gave an IC50 [1, 3] of 41.4 nM and an IC50 (MIA PaCa-2 cells) of 82.8 nM.

For `Cc1cc2c(nc(C)n2C)c2c1-c1cccc3c(C(=O)c4cc(F)c(NC(=O)/C=C/CN5CC[C@H]5CO)c(F)c4)cn(c13)CCN2C` [Example 132, (S,E)-N-(2,6-difluoro-4-(6,8,9,11-tetramethyl-8,11,12,13-tetrahydro-imidazo[4″,5″:5′,6′]-benzo[1′,2′:5,6][1,4]-diazocino[7,8,1-hi]indole-2-carbonyl)phenyl)-4-(2-(hydroxymethyl)azetidin-1-yl)but-2-enamide], the IC50 [1, 2] was 10.8 nM and the IC50 (MIA PaCa-2 cells) was 16.7 nM.

In the case of `COc1cc2c(nc(C)n2C)c2c1-c1cccn3c(C(=O)c4cc(F)c(NC(=O)/C=C/CN[C@@H]5CCCOC5)c(F)c4)cc(c13)CCN2C` [Example 133], the IC50 [1, 3] is reported as 11.4 nM and the IC50 (MIA PaCa-2 cells) is reported as 6.45 nM.

In the case of `Cc1cc2c(ncn2C)c2c1-c1cccn3c(C(=O)c4cc(F)c(NC(=O)/C=C/CNC56CCC(CC5)OC6)c(F)c4)cc(c13)CCN2C` [Example 134], the IC50 [1, 3] is reported as 31 nM and the IC50 (MIA PaCa-2 cells) is reported as 244 nM.

`Cc1cc2c(nc(C)n2C)c2c1-c1cccc3c(C(=O)c4cc(F)c(NC(=O)/C=C/CN[C@H]5C[C@H]6CC[C@@H]5O6)c(F)c4)cn(c13)CCN2C` [Example 136] gave an IC50 [1, 2] of 26.4 nM and an IC50 (MIA PaCa-2 cells) of 36.1 nM.
